Assay results reported in EP2932958A1, “COSMETIC AND PHARMACEUTICAL APPLICATIONS OF N-ACETYLHYDROXYPROLINE” (Beiersdorf AG, priority 2007, dated 2008).

Experiments:
[1] = test system: Primary human fibroblasts; assay: CML formation in fibroblasts after glyoxal treatment (FACS, immunoblot, immunoprecipitation); format: cell-based; conditions: 200 µM glyoxal for 7 days
Method: To test the effect of CML-modifications on vimentin function cells were treated with glyoxal to induce CML-vimentin modifications in fibroblasts. Primary human fibroblasts were incubated with 200 µM glyoxal for 7 days to enhance CML formation^18,20,28. […] The higher rate of CML-vimentin formation leads to a predominant modification of vimentin in the linker region of the molecule.
Proteins from cell extracts (20 µg per lane) were separated by gel electrophoresis under denaturing conditions on 10% SDS-PAGE gels. Immunoblotting was performed following standard procedures using chemiluminescence methods. […] Signals were quantified using LumiAnalyst (Boehringer Mannheim, Germany). […]
Fibroblasts were incubated for 7 days with 200 µM glyoxal^18,20. […] After 3 washing steps with PBS the fluorescence was measured using FACSCanto (BD Biosciences, San Jose, USA) and analysed by the software BD FACSDiva 4.0.
Human fibroblasts were incubated for 7 days with 200 µM glyoxal^18,20 and tested for CML formation using FACS analysis as described above (a). Quantitative analysis of (a) is shown in panel (b, right columns) together with quantitative analysis of dot-blots as described in the legend to Fig.4 and the Methods section (b, left columns). […] Additionally, the two cell populations were lysed, vimentin was immunoprecipitated and analysed for CML-modification by SDS-page and immunoblotting. […]

human fibroblasts [2] = assay: Vimentin redistribution to a perinuclear aggregate after glyoxal treatment (immunofluorescence microscopy); format: cell-based
Method: To determine whether the loss of contractile capacity is the result of a CML-induced redistribution of vimentin, immunofluorescence microscopic analysis of fibroblasts with and without glyoxal treatment were employed. […] About 90% of the fibroblasts were affected after incubation for 7 days.
For immunostaining, cells were fixed in 3% paraformaldehyde for 30 minutes at room temperature, washed with PBS and permeabilized with 0.5% Triton X-100 for 5 minutes; after which the cells were blocked with 3% BSA for 30 minutes. Cells were then incubated with primary antibody in 1% BSA for 1 hour. […] Cells were then incubated for 1 hour with 1% BSA solution containing fluorescence-labelled secondary antibodies (AlexaFluor 488 chicken-anti-mouse IgG, AlexaFluor 594 donkey-anti-goat IgG, AlexaFluor 546 donkey-anti-goat IgG, Molecular Probes, Eugene, Oregon) at 1:1,000 to visualise the target protein and DAPI (Molecular Probes, Eugene, Oregon). After extensive washing with PBS fluorescence images were recorded on a fluorescence microscope (Olympus, Hamburg, Germany) with an attached […] camera. Confocal fluorescence images were recorded on LSM 510 Meta (Carl Zeiss, Jena, Germany). […]

human fibroblasts [3] = assay: Contraction capacity of fibroblasts in 3D free-floating collagen lattices; format: cell-based; conditions: glyoxal treated vs control fibroblasts, n=10, p=0.00056
Method: Further, normal fibroblasts were compared with fibroblasts with a higher CML-vimentin modification with respect to contractile capacities. The contractile capacity was determined using 3D free-floating collagen lattices^29,30.
100 mg Type I collagen (Sigma, St. Louis, USA) was dissolved at 4°C in 33.3 ml of 0.1% sterile acetic acid. 0.9 ml of 10x Hank's Buffer Salt Solution (Biochrom, Berlin, Germany) was added to 4.5 ml of this solution of collagen. 1.9 ml of 0.1% acetic acid was supplemented. NaOH was added dropwise to neutralise the solution. 1.5 x 10^5 fibroblasts were resuspended in 0.1 ml FCS and added to the solution for each ml of the gel. Casy Model TT (Schärfe System, Reutlingen, Germany) was used to count the fibroblasts and to control their viability. […] Diameters were measured at 0 hours and 24 hours. […]
Human fibroblasts were incubated for 7 days with 200 µM glyoxal^18,20 and tested for CML formation using FACS analysis as described above (a). Quantitative analysis of (a) is shown in panel (b, right columns) together with quantitative analysis of dot-blots as described in the legend to Fig.4 and the Methods section (b, left columns). […] Additionally, the two cell populations were lysed, vimentin was immunoprecipitated and analysed for CML-modification by SDS-page and immunoblotting. […] The contraction of these lattices was measured after 48h. […]

BSA [4] = biological target: T1, BSA (Bos taurus, UniProt P02769); assay: Inhibition of CML glycation of BSA with DHA, dot-blot (part B); format: biochemical, Bovine; conditions: BSA 1%, DHA 1%, 1 day at 50°C; series I 0.17 % and II 9.82 mM of inhibitor
Method: Samples (A-F) were incubated for 1 day at 50°C and analysed for CML-content using the dot-blot approach set forth above in A. The dot-blot results are shown in Figure 11.
(§1) The samples had the following composition: • A: only BSA (1%) • B: BSA (1%) with DHA (1%) • C: BSA (1%) with Hydroxyproline and DHA (1 %) • D: BSA (1%) with N-Acetylhydroxyproline (NAHP) and DHA (1%) • E: BSA (1%) with Proline and DHA (1%) • F: BSA (1%) with Acetylproline and DHA (1%)
(§2) Each sample (A-F) was tested twice (I+II) with the difference that I. was conducted with 0.17 % of each inhibitor (Proline, Hydroxyproline, Acetylproline or NAHP) and II. was conducted with 9.82 mM of each inhibitor.
The intensity of each dot was quantified. The results are represented in Figure 12.

[5] = test system: age spots (senile lentigo); assay: Lightening effect on undesired skin pigmentation (age spots); format: in vivo; conditions: after seven days
Excerpt: Undesired and uneven skin pigmentation such as, e.g., age spots (senile lentigo) are a major problem associated with the aging of skin and skin appendages. N-acetylhydroxyproline has an effect with respect to the lightening of age spots.

BSA [6] = biological target: T1, BSA; assay: Inhibition of BSA-CML formation with glucose, dot-blot with CML-specific antibody (part A); format: biochemical, Bovine; conditions: BSA 1.035 %, glucose 1 M, 7 days at 50°C, various amounts of NAHP
Method: BSA samples of were incubated with glucose for 7 days at 50°C in the presence of various amounts of NAHP and thereafter analysed for their CML-content using a dot-blot approach. An antibody which is specific for the CML modifications of immobilised proteins (in this case BSA) on a nitrocellulose membrane was used to make the CML modifications visible. […] The stronger the intensity of each dot in the above series, the higher is the concentration of CML-modifications on the BSA. The control consists of BSA without glycation agent (glucose). Each single dot was quantified for its intensity leading to the results which are shown diagrammatically in Figure 10.
The concentration of BSA was 1.035 % (10.35 mg/ml) and the concentration of glucose in each sample was 1 M.

BSA [7] = biological target: T1, BSA; assay: AGE-fluorescence of BSA incubated with DHA (part B, samples II); format: biochemical, Bovine; conditions: BSA 1%, DHA 1%
Method: as §1, §2
Samples A-F (II) were further tested regarding the inhibition of the formation of other AGEs (different from CML). To this end, the AGE-fluorescence at λex=370 nm and λem= 440 nm was measured. The wavelengths used are those proposed by Bellmunt et al., Lung 173 (1995), 177-85 and used by many laboratories.

BSA [8] = biological target: T1, BSA; assay: BSA-Glucose Assay of AGE formation at pH 5 and pH 7 (part F); format: biochemical, Bovine; conditions: BSA with glucose, 7 days at 50°C
Method: As acetylated compounds result in a decrease in the pH, the effect of NAHP was compared at two different pH values (pH 5 and pH 7). As described in Section A, the BSA-Glucose Assay was used. To stabilize the pH the adjustment was performed after the addition of the inhibitor.
After incubation of BSA with glucose for 7 days at 50°C a significant increase in AGE fluorescence is detectable. An acidic environment (pH 5) results in a much less intensive AGE-formation in the BSA-Glucose Assay than a neutral, environment (pH 7).

T1 sequence (P02769 25-607): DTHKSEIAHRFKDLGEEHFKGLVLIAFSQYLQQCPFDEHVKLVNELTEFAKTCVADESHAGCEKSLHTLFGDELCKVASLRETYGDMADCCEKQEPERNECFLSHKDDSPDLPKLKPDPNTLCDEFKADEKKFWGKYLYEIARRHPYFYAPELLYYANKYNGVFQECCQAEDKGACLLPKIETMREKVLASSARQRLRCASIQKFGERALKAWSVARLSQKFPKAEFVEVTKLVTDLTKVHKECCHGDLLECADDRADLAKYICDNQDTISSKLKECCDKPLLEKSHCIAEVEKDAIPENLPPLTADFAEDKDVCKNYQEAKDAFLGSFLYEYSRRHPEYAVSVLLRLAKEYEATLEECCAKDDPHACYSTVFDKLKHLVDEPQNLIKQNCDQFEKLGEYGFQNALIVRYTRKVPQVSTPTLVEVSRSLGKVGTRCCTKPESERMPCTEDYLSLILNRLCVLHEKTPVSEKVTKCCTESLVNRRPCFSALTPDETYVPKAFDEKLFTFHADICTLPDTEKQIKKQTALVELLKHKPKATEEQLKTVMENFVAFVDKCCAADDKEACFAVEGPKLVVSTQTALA

formation of fluorescent AGEs (AGE-fluorescence at λex=370 nm and λem= 440 nm) (BSA [7]; 9.82 mM inhibitor (samples II)) | brownish color of AGEs in the solution (BSA [7]; samples II, digital picture) | AGE-formation (AGE fluorescence) at pH 5 (BSA [8]; pH 5) | AGE-formation (AGE fluorescence) at pH 7 (BSA [8]; pH 7) | SMILES | CML as measured by FACS and immunoblot analysis [1] | fibroblasts showing perinuclear vimentin aggregate formation (human fibroblasts [2]; 200 µM glyoxal for 2 days) | fibroblasts affected by vimentin aggregate formation (human fibroblasts [2]; 200 µM glyoxal, incubation for 7 days) | contractile capacity of fibroblasts in 3D collagen lattices (human fibroblasts [3]) | inhibitory effect on the CML-glycation of BSA (dot-blot intensity) (BSA [4]) | brightness of the treated age spot [5] | CML glycation of BSA (dot-blot intensity) (BSA [6])
 |  |  |  | O=CC=O [glyoxal] | massive increase of CML | About 70% | About 90% | significantly reduced |  |  | 
 |  |  |  | CC(=O)N1CCC[C@H]1C(=O)O [Acetylproline, reference compound] |  |  |  |  | potent inhibitor of the CML-glycation, but to a lesser extent than NAHP |  | 
inhibited | absent | reduced AGE-formation | reduced AGE-formation | CC(=O)N1C[C@H](O)C[C@H]1C(=O)O [NAHP, N-acetylhydroxyproline] |  |  |  |  | strongest inhibitory effect | increase in brightness | protective effect on BSA, preventing the CML glycation of this protein
